row,melting point [°C],Structure (SMILES)
1,209 to 210,CCOC(=O)C(Cl)=Cc1cc(NC(N)=O)ccc1Cl
2,197 to 198,CC(C)C(=O)Nc1ccc(OCc2ccccc2)c(Br)c1N(C)C
3,56 to 58,COC(=O)C(O)c1ccc([N+](=O)[O-])cc1 (stereo unspecified)
4,82 to 84,COc1cccc(CC(O)C2CCNCC2)c1OC (stereo unspecified)
5,74 to 76,CCOC(=O)C(C(=O)OCC)C(Cc1cc(C(F)(F)F)ccc1N)c1ccccc1Cl (stereo unspecified)
6,240 to 242,CS(=O)c1ccc(-c2nc3ncccc3[nH]2)cc1 (stereo unspecified)
7,163 to 165,CCC(CC)Nc1nc(C)nc(N2CCc3cc(Cl)cc(Cl)c32)c1C#N
8,37 to 39,Cc1ccc(C(Cl)=C(Cl)Cl)cn1
9,158 to 160,COC(=S)c1nc(C)c(N)nc1N
10,> 260,NC(=O)c1cc(F)c(-n2ncc(Cl)c(Cl)c2=O)cc1F
11,149 to 150,CCOC(=O)c1cc2cc(OC(F)(F)F)cc(N(C)S(=O)(=O)c3cccs3)c2[nH]1
12,110 to 120,COC1(OC)C(=O)NC(Nc2ncnc3c2ncn3C2OC(CO)C(O)C2O)C1Cl (stereo unspecified)
13,131,Cc1cc(Cn2[nH]c(N)cc2=O)ccc1Cl
14,> 260,CCOC(=O)C1=C(N)NC2=C(C(=O)CCC2)C1c1cccc(C)n1 (stereo unspecified)
15,256 to 258,COc1cc2nc(N)nc(-c3cccc(O)c3)c2cc1OC
16,186 to 187,COc1ccc(-c2c(CO)c(CO)c3n2-c2ccc(OC)cc2C3)cc1
17,107 to 108,CC(C)(O)Cc1ccc(N)cc1
18,105 to 108,CC(C)c1cc(C(C)C)c(OCC(=O)O)c(C(C)C)c1
19,74,CCCOc1n[nH]c(=O)n1C

row,melting point [°C],Structure (SMILES)
1,260 to 263,CCOC(=O)c1cn(C2CC2)c2c(C)c(F)c(F)c([N+](=O)[O-])c2c1=O
2,82 to 85,CCN1C(=O)CCCc2cc(Nc3ncc(Cl)c(Nc4ccccc4-n4cccn4)n3)c(OC)cc21
3,136 to 142,O=c1c2c(nc3c(O)cccn13)CCC2
4,204 to 206,CNc1nc(-c2cccc(NC(=O)c3ccccc3)c2)c2cc(OCc3ccccc3)c(OC)cc2n1
5,> 315,O=c1oc2cc(O)c(O)c([N+](=O)[O-])c2cc1-c1nnn[nH]1
6,194 to 196,COCOc1cccc2c(=O)[nH]c(C3CCN(C)CC3)cc12
7,235 to 240,CCc1noc(-c2cc3c(cn2)[nH]c2ccc(N(C)C)cc23)n1
8,207 to 209,Cc1ccc(C(=O)Nc2c[nH]nc2C(=O)NCCC#N)cc1
9,80 to 81,COc1ccc2cc([C@H](C)C(=O)OCC(=O)N(C)CCO[N+](=O)[O-])ccc2c1
10,122 to 125,Cc1ccc(-c2nnc(N3CCCC(O)C3)nc2-c2ccc(C)cc2)cc1 (stereo unspecified)
11,204 to 206,CNC(=O)COc1nc(N)nc(-c2ccccc2)c1-c1ccc(=O)n(C(C)C)n1
12,29 to 31,CCNc1nc(NCCN2CCCC2)nc(Nc2ccc(OC)cc2)n1
13,128,Cc1cc(C)cc(NCc2ccc3nc(NCC(O)CO)n(Cc4nc(C)ccc4O)c3c2)c1 (stereo unspecified)
14,226 to 228,CCOC(=O)c1nc(N)sc1-c1nc2cc(C)ccn2c1C
15,147 to 150,Cc1ccccc1C1(CNC(=O)Nc2c(C(C)C)cccc2C(C)C)CCCC1
16,236 to 237,COc1cc(Cc2cnc(N)nc2N)cc2c1OC(C)(C)C=C2C#CCO
17,174,Cc1cc(=O)c(C(=O)O)c(C)n1C1CC(C)(C)NC(C)(C)C1
18,137 to 138,Cc1ccccc1C(=O)Nc1ccc(Cl)c(C(=O)OC(C)C)c1

# Further lines, the compound ahead of its results:
row,Structure (SMILES),melting point [°C]
1,Cc1ccc2c(C(=O)C3CSC(c4cccnc4)N3)c[nH]c2c1 (stereo unspecified),132 to 138
2,Cc1ccc(F)cc1C(=O)Nc1ccc(C(=O)N2Cc3ccccc3Oc3ccccc32)cn1,180 to 186
3,CN1Cc2ccc(OCCCCN3CCN(c4cccc5ccccc45)CC3)nc2NC1=O,180 to 182
4,Cc1noc(NS(=O)(=O)c2ccsc2C(=O)Nc2cc3c(cc2C#N)OCO3)c1Cl,167 to 168
5,CN(CC(=O)NO)C(=O)[C@H]1CCCC[C@H]1C(=O)O (relative stereo),131 to 133
6,NC(=O)c1ccccc1C1c2ccc(Cl)cc2Oc2cc(Cl)ccc21,218 to 220
7,COc1ccc(Cl)cc1CC1CNC(=O)CN(C(=O)Nc2cccc(NC(C)=O)c2)C1=O (stereo unspecified),130 to 131
8,C(#Cc1cc2ccccc2s1)c1cccs1,114 to 116
9,O=C1CCCN1c1c([N+](=O)[O-])cc(C(F)(F)F)c(Cl)c1[N+](=O)[O-],121 to 122
10,Cc1cc(SCc2ccc(OCc3ccc(F)cc3)cc2)ccc1OCC(=O)O,154 to 155
11,CCc1cc(CNc2nc3ccccc3o2)c(=O)[nH]c1C,211 to 213
12,O=C(/C=C/c1ccc(C(F)(F)F)cc1-c1cccnc1)Nc1cnc2ccccc2c1,196 to 199
13,O=C(O)c1cncc(O)c1C(=O)c1cc(Cl)ccc1F,262 to 264
14,COc1ccc(S(=O)(=O)Oc2ccn3nc(-c4ccccc4)c(-c4ccc(=O)n(C(C)C)n4)c3c2)cc1,155 to 157
15,O=C(O)c1c(O)c(-c2ccccc2)nc2ccccc12,206
16,O=[N+]([O-])CCc1cccc2ccccc12,45 to 46
17,Cc1nn(CCCl)c(-c2ccc(F)cc2)c1-c1ccc2c(c1)NC(=O)CO2,216

row,Structure (SMILES),melting point [°C]
1,CN(CCCCOCC(=O)O)c1cnc(-c2ccc(F)cc2)c(-c2ccc(F)cc2)n1,116 to 118
2,C#CCNC(=O)C=C(C)N,137 to 138
3,OC(c1ccccc1)(c1ccccc1)c1ccncc1,238 to 240
4,COC(=O)c1ccc(-c2ccc(-c3cn([C@H]4CN5CCC4CC5)nn3)s2)cc1Cl,200
5,Cc1c(F)c(N2CCN(C=O)C(C)C2)cc2c1C(=O)C(C=O)CN2C1CC1 (stereo unspecified),148 to 150
6,Cc1c(CCC(=O)c2cn(Cc3ccccc3)c3ccccc23)ncn1C(c1ccccc1)(c1ccccc1)c1ccccc1,186 to 188
7,CS(=O)(=O)C1Cc2cc(Cl)ccc2C1=O (stereo unspecified),197
8,O=[N+]([O-])C=C1NCCN1Cc1cc(Br)no1,202
9,N#CCc1c[nH]c2cccc(Cl)c12,134 to 136
10,Cc1c(C2CCC(c3ccccc3)(N(C)C)CC2)[nH]c2ccc(F)cc12 (stereo unspecified),199 to 205
11,N#Cc1ccc(Oc2ccc(F)cc2)nc1,120 to 121
12,CN(C)C(N)=NC(=O)C(Br)c1c(Cl)cccc1Cl (stereo unspecified),142 to 145
13,CS(=O)(=O)c1ccc(-c2nn3c4c(oc3c2-c2ccc(F)cc2)CCCC4)cc1,183 to 184
14,C#CCN(c1ccc(C(=O)NC(CCc2nnn[nH]2)C(=O)O)nc1)C1CCc2cc3nc(C)[nH]c(=O)c3cc21 (mixture of isomers),189 to 191
15,Cc1ccc(S(=O)(=O)CNCC(CS(=O)(=O)c2ccccc2Oc2ccc(OC(F)(F)F)cc2)N(O)C=O)cc1 (stereo unspecified),161 to 162
16,COC(=O)CCc1ccc(CNC(=O)[C@@H]2Cc3ccccc3N2S(=O)(=O)c2ccc(C(C)(C)C)cc2)cc1,56
17,Cc1ccc(COc2cc(C(O)C#Cc3ccc(C(=O)O)cc3)cc3c2C(C)(C)CCC3(C)C)cc1 (stereo unspecified),219

# Reference: a melting point compilation (Tetko et al.; mined from patent text by program, amines drawn as free bases though some values may be those of a salt)
